Values joined by “and” are separate entries in the source; they are usually repeats but may differ in a detail not shown here. Identical values can stand only once. “Also recorded” adds a separate entry of the source.
Legend:
HT1080 cells = experiment: Ferroptosis inducers (FINs)/ferroptocide, 7-AAD/annexin V flow cytometry; format: cell-based, human; details: for double-negative events (7-AAD/annexin V): alone (DMSO) or with Fer-1 1 µM; for double-negative events (7-AAD/annexin V) / Inhibition of cell death induction by FINs/ferroptocide: Nec-1s 30 µM, Nec-1f 30 µM; for Inhibition of cell death induction by FINs/ferroptocide: Fer-1 1 µM
[1] = system: freshly isolated primary murine renal tubules; experiment: RSL3-induced LDH release of freshly isolated kidney tubules; format: cell-based; details: RSL3 2 h; for LDH release: freshly isolated kidney tubules, 5 mM glycine, alone (DMSO) or with Fer-1 or Nec-1f; for Effect on RSL3-induced LDH release: freshly isolated tubules, glycine medium
Protocol: (§1) The LDH release of cells or of freshly isolated kidney tubules was measured according to manufacturers’ instructions at indicated time points. In brief, an aliquot of the supernatant was taken and Lysis Solution was added for 45 min to induce maximal LDH release before another aliquot of the supernatant was taken. Subsequently, the supernatants were incubated with CytoTox 96® Reagent for 15 min protected from light at room temperature before adding Stop Solution. Absorbance was measured at 490 nm.
Primary murine renal tubules were isolated following a modified previously established protocol. […] Kidney slices of each kidney were transferred in 2 ml reaction tube containing 2 mg/ml collagenase type II in incubation solution (48 μg/ml trypsin inhibitor, 25 μg/ml DNAse I, 140 mM NaCl, 0.4 mM KH2PO4, 1.6 mM K2HPO4 · 3 H2O, 1 mM MgSO4 · 7 H2O, 10 mM CH3COONa · 3 H2O, 1 mM α-ketoglytarate and 1.3 mM Ca-gluconate) and digested for 5 min at 37 °C, 850 rpm. Due to the presence of damaged tubules, the first resulting supernatant was discarded and 1 ml of 2 mg/ml collagenase type II in incubation solution was added to the kidney slices and digested for 5 min at 37 °C, 850 rpm. The supernatant was collected and transferred in a 2 ml reaction tube containing 1 ml ice-cold sorting solution (0.5 mg/ml bovine albumin in incubation solution). The reaction tubes were left on ice for the tubules to precipitate. The supernatant was removed and the tubules were washed twice with ice-cold incubation solution. Once the tubules precipitated the supernatant was removed and the ice-cold sorting solution was added (the volume was adjusted depending on the number of samples needed for the experiment). Tubules were distributed in a twenty-four-well plate containing Dulbecco’s Modified Eagle Medium F-12 Nutrient Mixture without phenol red (DMEM/F12, Thermo Fisher), supplemented with 0.01 mg/ml recombinant human insulin, 5.5 μg/ml human transferrin, 0.005 μg/ml sodium selenite (Na2SeO3) (ITS without linoleic acid, Sigma Aldrich), 50 nM hydrocortisone, 100 U/ml penicillin, and 100 μg/ml streptomycin (Pen/Strep, Thermo Fisher).
All of the experiments performed contain a negative control to assess LDH release at 0 h of incubation as a quality control. No more than 10% LDH release in these negative controls was tolerated. […] Isolated murine renal tubules were placed in twenty four-well plates containing the respective agents diluted in Dulbecco’s Modified Eagle Medium F-12 Nutrient Mixture without phenol red (DMEM/F12, Thermo Fisher), supplemented with 0.01 mg/ml recombinant human insulin, 5.5 μg/ml human transferrin, 0.005 μg/ml Na2SeO3 (ITS without linoleic acid, Sigma Aldrich), 50 nM hydrocortisone, 100 U/ml penicillin, and 100 μg/ml streptomycin (Pen/Strep, Thermo Fisher). […]

[2] = system: primary murine tubular cells; experiment: RSL3-induced LDH release of primary kidney tubular cells; format: cell-based; details: RSL3 14 h; for Effect on RSL3-induced LDH release: primary renal tubular cells
Protocol: as §1
Generation, cell culture, and induction of cell death in primary murine tubular cells. Murine tubular cells were generated by outgrowth from isolated renal tubules (see above). Primary murine tubules were placed in six-well plates containing Dulbecco’s Modified Eagle Medium F-12 Nutrient Mixture without phenol red (DMEM/F12, Thermo Fisher), supplemented with 0.01 mg/ml recombinant human insulin, 5.5 μg/ml human transferrin, 0.005 μg/ml Na2SeO3 (ITS without linoleic acid, Sigma Aldrich), 50 nM hydrocortisone, 100 U/ml penicillin, and 100 μg/ml streptomycin (Pen/Strep, Thermo Fisher). After two days, the outgrown primary murine tubular cells were washed with PBS and a fresh medium was added. When the number of primary murine tubular cells reached approximately 50% confluence, the cells were removed from the six-well plates using Trypsin-EDTA (Thermo Fisher), washed with medium and a Ficoll Paque Plus (Sigma Aldrich) gradient was performed to remove any dead cells, and debris from the murine renal tubules. Cells were washed twice with PBS and seeded in six-well plates with medium. Once the number of grown cells reached approximately 50% confluence, they were washed with PBS and treated with type 2 FIN: RSL3 (also see Supplementary Table 2 for details). After 14 h, medium and cells were collected and prepared for LDH release assay. Images of the treated primary murine tubular cells were obtained using a 20×/0.30 PH1 objective on a Leica DMi1 microscope.

[3] = Inhibited co-autoxidation of egg phosphatidylcholine liposomes and STY-BODIPY (radical-trapping antioxidant activity)
Protocol: Inhibitors were then added (5 μl aliquots) at desired concentrations to the appropriate wells followed by vigorous mixing. […] Experiments were performed in triplicate using HPLC grade solvents and kinetic data is given as an average of three independent measurements. […]

Na+ channel (site 2) = experiment: Off-target radioligand binding screen; details: Nec-1f 10 µM

## CN1C(=O)C(Cc2c[nH]c3c(Cl)cccc23)NC1=S (centres unmarked) [Nec-1f]
HT1080 cells; HT1080
  Prevention of FINO2-induced ferroptosis: less effective
  Inhibition of cell death induction by FINs/ferroptocide: inhibition of cell death induction
HT1080 cells; HT1080, 1.13 µM RSL3 6 h
  double-negative events (7-AAD/annexin V): 88% and 71.9% and 83.1% and 89.5%
HT1080 cells; HT1080, 10 µM FIN56 24 h
  double-negative events (7-AAD/annexin V): 82.6% and 86.1% and 84.4%
HT1080 cells; HT1080, 10 µM FINO2 24 h
  double-negative events (7-AAD/annexin V): 80.8% and 51.5% and 65.9% and 53.8%
[1]
  LDH release: 18.43% and 23.14% and 28.56%
  Effect on RSL3-induced LDH release: reduction of LDH release; also recorded: significantly attenuated
[2]; primary kidney tubular cells, alone (DMSO) or with Fer-1 or Nec-1f 30 µM
  LDH release: 29.82% and 33.38% and 28.13%
[2]
  Effect on RSL3-induced LDH release: prevented
[3]
  RTA activity in co-autoxidation of egg phosphatidylcholine lipids in STY-BODIPY-embedded liposomes: devoid of RTA activity
[3]; 2 µM Nec-1f, time 53820 s
  ΔSTY-BODIPY: -0.4045 µM
[3]; 2 µM Nec-1f, time 53880 s
  ΔSTY-BODIPY: -0.4072 µM
[3]; 2 µM Nec-1f, time 53940 s
  ΔSTY-BODIPY: -0.4054 µM
[3]; 2 µM Nec-1f, time 54000 s
  ΔSTY-BODIPY: -0.4034 µM
[3]; 10 µM Nec-1f, time 53820 s
  ΔSTY-BODIPY: -0.5158 µM
[3]; 10 µM Nec-1f, time 53880 s
  ΔSTY-BODIPY: -0.5141 µM
[3]; 10 µM Nec-1f, time 53940 s
  ΔSTY-BODIPY: -0.5142 µM
[3]; 10 µM Nec-1f, time 54000 s
  ΔSTY-BODIPY: -0.5122 µM
Na+ channel (site 2)
  Na+ channel (site 2) ($): inhibition of radioligand binding: -14.5%

## CCOC(=O)c1ccc(NC2CCCCC2)c(N)c1 [Fer-1, ferrostatin-1]
HT1080 cells; HT1080, 1.13 µM RSL3 6 h
  double-negative events (7-AAD/annexin V): 92.2% and 77.7% and 91.5% and 91%
HT1080 cells; HT1080, 5 µM erastin 24 h
  double-negative events (7-AAD/annexin V): 91.8% and 92.7%
HT1080 cells; HT1080, 10 µM FIN56 24 h
  double-negative events (7-AAD/annexin V): 88.3% and 93.1% and 90%
HT1080 cells; HT1080, 10 µM FINO2 24 h
  double-negative events (7-AAD/annexin V): 90.8% and 87.7% and 89.4%
HT1080 cells; HT1080, 10 µM ferroptocide 24 h
  double-negative events (7-AAD/annexin V): 71.3% and 77%
HT1080 cells; HT1080
  Inhibition of cell death induction by FINs/ferroptocide: inhibition of cell death induction
[1]
  LDH release: 22.94% and 23.84% and 16.99%
  Effect on RSL3-induced LDH release: significantly attenuated
[2]
  Effect on RSL3-induced LDH release: prevented; also recorded: complete reversal of LDH release
[3]; 2 µM Fer-1, time 53820 s
  ΔSTY-BODIPY: -0.3745 µM
[3]; 2 µM Fer-1, time 53880 s
  ΔSTY-BODIPY: -0.3737 µM
[3]; 2 µM Fer-1, time 53940 s
  ΔSTY-BODIPY: -0.3729 µM
[3]; 2 µM Fer-1, time 54000 s
  ΔSTY-BODIPY: -0.3705 µM

From PMC8292346, “Dysfunction of the key ferroptosis-surveilling systems hypersensitizes mice to tubular necrosis during acute kidney injury” (Nature Communications, 2021)
